Source: US12409189B2, “STAUFEN1 agents and associated methods” (University of Utah Research Foundation, priority 2016, dated 2025)
Entries after “also recorded” stand apart in the source; their conditions may differ. d = 2'-deoxy (DNA); r = 2'-OH (RNA)

Columns and labels:
Assay type in all cases: cell-based, human
STAU1 = test: Sodium arsenite-induced stress, STAU1 immunoblotting in fibroblasts
Text: Cell culture and Transfections. Four normal skin fibroblasts (ATXN2 with CAG22) and five SCA2 patient-derived skin FBs (ATXN2 with CAG repeats; 35, 35, 35, 42, and 45), were maintained in DMEM medium containing 10% fetal bovine serum. Two normal (ATXN2 with CAG22) and three SCA2 patient-derived (ATXN2 with expanded CAG repeats; 40, 46 and 52) Epstein-Barr virus (EBV)-immortalized LBCs were maintained in RPMI medium containing 15% fetal bovine serum. All subjects gave written consent and all procedures were approved by the Institutional Review Board at the University of Utah. The following primary human fibroblasts were obtained from the Coriell Cell Repositories (Camden, NJ, USA): ALS patient (TDP-43G298S mutation)(ND32947), Huntington disease (HD) patient (ND33392) and SCA3 (Machado-Joseph disease, MJD) patient (GM06153). TDP-43G298S, HD, SCA3, and SH-SY5Y cells were maintained in DMEM medium containing 10% fetal bovine serum.
Preparation of protein lysates and western blot analyses. Cellular extracts were prepared by a single-step lysis method. […] Signals were detected by using the Immobilon Western Chemiluminescent HRP Substrate (Millipore Inc., USA; cat #WBKLSO100) according to the manufacturer's protocol. The intensity of proteins was determined by using the ImageJ software analyses system and the relative protein abundances were expressed as ratios to β-actin.

Staufen1 [1] = test: Western blot of Staufen1 in SH-SY5Y and ATXN2-Q22/58 knock-in cells; conditions: for STAU1 levels, expression relative to actin: SH-SY5Y-ATXN2 [Q22/Q22] cells, ASO at the indicated dose, western blotting
Procedure: (§1) SH-SY5Y cells were cultured in standard DMEM with 10% FBS and 1X penicillin/streptomycin in 5% CO2. Transfection of STAU1 siRNA or STAU1 ASO was accomplished using Lipofectamine transfection reagent using standard conditions. Cells were harvested 3-5 days post transfection.
(§2) Protein extracts were prepared by suspending cell pellets in SDS-PAGE sample buffer (Laemmli sample buffer) followed by boiling for 5 min. Equal amount of the extracts were subjected to Western blot analysis to determine the steady-state levels of proteins using the indicated antibodies. Protein extracts were resolved by SDS-PAGE and transferred to Hybond P membranes (Amersham Bioscience Inc., USA). After blocking with 5% skim milk in 0.1% Tween 20/PBS, the membranes were incubated with primary antibodies in 5% skim milk in 0.1% Tween 20/PBS for 2 hrs at room temperature or overnight at 4° C. After several washes with 0.1% Tween 20/PBS, the membranes were incubated with the corresponding secondary antibodies conjugated with HRP in 5% skim milk in 0.1% Tween 20/PBS for 2 hrs at room temperature. Following three additional washes with 0.1% Tween 20/PBS, signals were detected by using the Immobilon Western Chemiluminescent HRP Substrate (Millipore Inc., USA; cat #WBKLSO100) according to the manufacturer's protocol. The antibodies used included ATXN2 mAb [(1:3000), BD Biosciences Inc.; cat #611378], rabbit anti-Staufen antibody (Novus biologicals Inc., NBP1-33202), SQSTM1/p62 antibody (Cell signaling, #5114), LC3B Antibody (Novus biologicals Inc., NB100-2220), mTOR antibody (Cell signaling, #2972), Phospho-mTOR (Ser2448) antibody (Cell signaling #2971), β-Actin mAb conjugated with HRP [(1:10,000), Sigma Inc.; cat #A3858]. Secondary antibodies were horse anti-mouse IgG-HRP antibody (Vector laboratories, PI-2000), and goat anti-rabbit IgG-HRP antibody (Vector laboratories, PI-1000).
(§3) For over-expression of recombinant proteins, SH-SY5Y cells were seeded on 100 mm or 6 well dishes and incubated overnight. The cells were then transfected with plasmid DNAs and harvested 48 hrs post-transfection and processed as two aliquots for protein and RNA analyses. For siRNA experiments, cells were transfected with siRNAs using lipofectamine 2000, and lymphoblastoid B cells (1×10^6) were electroporated with siRNAs using the Neon transfection system (Invitrogen Inc., USA) according to the manufacturer's protocol and seeded on 6 well plates.
(§4) Preparation of protein lysates and western blot analyses. […] Signals were detected by using the Immobilon Western Chemiluminescent HRP Substrate (Millipore Inc., USA; cat #WBKLSO100) according to the manufacturer's protocol. The intensity of proteins was determined by using the ImageJ software analyses system and the relative protein abundances were expressed as ratios to β-actin.

ATXN2 = test: Western blot of ATXN2 in ATXN2-Q22/58 KI cells after RNAi
Procedure: as §1
Protein extracts were prepared by suspending cell pellets in SDS-PAGE sample buffer (Laemmli sample buffer) followed by boiling for 5 min. Equal amount of the extracts were subjected to Western blot analysis to determine the steady-state levels of proteins using the indicated antibodies. Protein extracts were resolved by SDS-PAGE and transferred to Hybond P membranes (Amersham Bioscience Inc., USA). […] Following three additional washes with 0.1% Tween 20/PBS, signals were detected by using the Immobilon Western Chemiluminescent HRP Substrate (Millipore Inc., USA; cat #WBKLSO100) according to the manufacturer's protocol. […]
as §4

[2] = system: autophagic pathway proteins (mTOR, P-mTOR, p62, LC3-II); test: Western blot of autophagic pathway proteins in SH-SY5Y and ATXN2-Q22/58 knock-in cells; conditions: for autophagic pathway proteins: ATXN2-Q22/58 knock-in cells, RNAi transfection
Procedure: as §1
as §2, with “The antibodies used included ATXN2 mAb [(1:3000), BD Biosciences Inc.; cat #611378], rabbit anti-Staufen antibody (Novus biologicals Inc., NBP1-33202), SQSTM1/p62 antibody (Cell signaling, #5114), LC3B Antibody (Novus biologicals Inc., NB100-2220), mTOR antibody (Cell signaling, #2972), Phospho-mTOR (Ser2448) antibody (Cell signaling #2971), β-Actin mAb conjugated with HRP [(1:10,000), Sigma Inc.; cat #A3858].” left out
as §3
Preparation of protein lysates and western blot analyses. Cellular extracts were prepared by a single-step lysis method. […] Equal amounts of the extracts were used for western blot analyses. […] Only supernatants were used for western blotting. Protein extracts were resolved by SDS-PAGE and transferred to Hybond P membranes (Amersham Bioscience Inc., USA). After blocking with 5% skim milk in 0.1% Tween 20/PBS, the membranes were processed for immunostaining using corresponding primary and secondary antibodies. Signals were detected by using the Immobilon Western Chemiluminescent HRP Substrate (Millipore Inc., USA; cat #WBKLSO100) according to the manufacturer's protocol. The intensity of proteins was determined by using the ImageJ software analyses system and the relative protein abundances were expressed as ratios to β-actin.

ATXN2 transcript = test: qPCR of ATXN2 transcript in LB cells after Staufen1 silencing; conditions: normal or SCA2-LB cells, Staufen1 siRNA
Text: (§5) The siRNAs used in this study were: All Star Negative Control siRNA (Qiagen Inc., USA; Cat #1027280), siATXN2 [Hs_ATXN2_2, (Qiagen Inc., USA; Cat #SI00308196), human siSTAU1: 5′-CCUAUAACUACAACAUGAGdTdT-3′ (SEQ ID NO: 3) and mouse siStau1: 5′-CAACUGUACUACCUUUCCAdTdT-3′ (SEQ ID NO: 31). Staufen1 siRNA oligonucleotides were synthesized by Invitrogen Inc., USA. The oligonucleotides were deprotected and the complementary strands were annealed.
as §3
(§6) RNA expression analyses by Quantitative RT-PCR. […] Quantitative RT-PCR was performed in QuantStudio 12K (Life Technologies, Inc.; USA) with the Power SYBR Green PCRMaster Mix (Applied Biosystems Inc.; USA). […] The threshold cycle for each sample was chosen from the linear range and converted to a starting quantity by interpolation from a standard curve run on the same plate for each set of primers. […]

PCP2 mRNA = test: qPCR of PCP2 transcript in LB cells and SCA2 fibroblasts after siRNA; conditions: Staufen1 siRNA
Text: as §5, §3, §6

Staufen1 [3] = test: Western blot of Staufen1 in normal and SCA2 LB cells and SCA2 fibroblasts after siRNA; conditions: siRNA electroporation, 4 days
Text: as §5, §3, §4

p21 Waf1/Cip1 = test: Cycloheximide (CHX)-chase assay, p21 Waf1/Cip1 control, western blot; conditions: 4 hr after CHX treatment (25 μg/ml), both normal and SCA2 fibroblasts
Procedure: (§7) To identify the underlying mechanism of ATXN2 polyQ expansion-mediated Staufen1 abundance, Staufen1 transcript levels were examined in normal and SCA2 fibroblasts. […] To test this, comparative protein stability for Staufen1 was measured by cycloheximide (CHX)-chase assay in normal and SCA2 fibroblasts. Relative Staufen1 levels were analyzed from harvested normal and SCA2 fibroblast extracts. (FIGS. 4B and 4C).
(§8) Preparation of protein lysates and western blot analyses. Cellular extracts were prepared by a single-step lysis method. The harvested cells were suspended in SDS-PAGE sample buffer [Laemmli sample buffer (Bio-Rad Inc.; cat #161-0737)] and then boiled for 5 min. Equal amounts of the extracts were used for western blot analyses. Cerebellar protein extracts were prepared by homogenization of mouse cerebella in extraction buffer [25 mM Tris-HCl pH 7.6, 300 mM NaCl, 0.5% Nonidet P-40, 2 mM EDTA, 2 mM MgCl2, 0.5 M urea and protease inhibitors (Sigma Inc.; cat #P-8340)] followed by centrifugation at 4° C. for 20 min at 14,000 RPM. […] Signals were detected by using the Immobilon Western Chemiluminescent HRP Substrate (Millipore Inc., USA; cat #WBKLSO100) according to the manufacturer's protocol. The intensity of proteins was determined by using the ImageJ software analyses system and the relative protein abundances were expressed as ratios to β-actin.

Staufen1 [4] = test: Cycloheximide (CHX)-chase assay, Staufen1 protein stability, western blot
Procedure: as §7, §8

[5] = SH-SY5Y and ATXN2-Q22/58 knock-in cells, Baf dose-wise, 6 h, vs untreated

## O=[As]O [sodium arsenite]
STAU1; HD and SCA3 patient fibroblasts, 1.0 mM, 0, 3 and 6 hr
  STAU1 level in response to arsenite: early and exaggerated responses; also recorded: exaggerated increases in STAU1 levels
STAU1; normal fibroblasts (implied), only visible after 6 hr treatment
  STAU1 level in response to arsenite: modest STAU1 increase

## 5′-TCTCATGTTGTAGTTATAGG-3′ (listed as DNA, chemistry not given here; listed as Homo sapiens) [STAU1 ASO-A, antisense oligonucleotide targeting Staufen1]
Staufen1 [1]
  STAU1 levels, expression relative to actin: reduced STAU1 levels

## 5′-CCUAUAACUACAACAUGAGdTdT-3′ (sense CCUAUAACUACAACAUGAGTT; sugars from the 5' end r19 d2, backbone not given here) [siSTAU1, siRNA directed against human Staufen1, synthesized by Invitrogen]
ATXN2; listed as STAU1-RNAi
  ATXN2 steady-state levels: did not change ATXN2 levels
ATXN2; listed as STAU1 siRNA
  ATXN2 steady-state levels: without affecting ATXN2 steady-state levels
[2]; listed as STAU1 RNAi
  autophagic pathway proteins: restored autophagic pathway proteins
[2]; listed as STAU1 siRNA
  autophagic pathway proteins: restoration of autophagic pathway proteins
ATXN2 transcript
  ATXN2 transcript levels: does not show any effect on ATXN2 transcript levels
PCP2 mRNA; SCA2-LB (ATXN2-Q22/52) cells, qPCR
  PCP2 mRNA level: restored PCP2 mRNA level to a level similar to that seen in normal LB cells treated with control siRNA
PCP2 mRNA; normal LB cells, vs control siRNA
  PCP2 mRNA levels: did not show significant alteration of PCP2 mRNA levels
Staufen1 [3]; SCA2-LB (ATXN2-Q22/52) cells
  depletion of Staufen1: ~83%
Staufen1 [3]; normal LB cells
  silencing of staufen1: ~81%

## 5′-CTGGAAAGATAGTCCAGTTG-3′ (listed as DNA, chemistry not given here; listed as Homo sapiens) [STAU1 ASO-B, antisense oligonucleotide targeting Staufen1]
Staufen1 [1]
  STAU1 levels, expression relative to actin: reduced STAU1 levels

## C[C@@H]1C[C@@H]([C@H](O)CC2CC(=O)NC(=O)C2)C(=O)[C@@H](C)C1 [CHX, cycloheximide]
p21 Waf1/Cip1
  reduction of p21 Waf1/Cip1 levels: ~90%
Staufen1 [4]; SCA2 fibroblasts, CHX treatment
  Staufen1 protein expression levels: relatively little decrease
Staufen1 [4]; normal fibroblasts, 4 hr after CHX treatment
  Staufen1 levels: reduced

## CO/C1=C\C(C)=C\[C@@H](C)[C@@H](O)[C@@H](C)C/C(C)=C/C=C/[C@H](OC)[C@@H]([C@@H](C)[C@@H](O)[C@H](C)[C@@]2(O)C[C@@H](O)[C@H](C)[C@@H](C(C)C)O2)OC1=O [Bafilomycin Al, bafilomycin Al, reference compound]
Staufen1 [1]; [5]
  Staufen1 levels / clearance: dose-wise increased levels; also recorded: lowers Staufen1 clearance
[2]; ATXN2-Q22/58 KI cells, Baf treatment
  LC3-II level: slight elevation of LC3-II
[2]; [5]
  processed LC3-II and p62 levels: dose-wise increased levels
